Results taken from PMC12670765, “Employment of chia gum and tannic acid as natural products in immobilization of horseradish peroxidase for the removal of azo dye” (BMC Biotechnology, 2025).

Tested on: T1, Horseradish peroxidase (HRP), soluble HRP
T1 construct: gene PRXC1A; free soluble form
Test: Lineweaver-Burk; absorbance at […] nm
Assay type: biochemical, Armoracia rusticana
Settings: soluble enzyme; co-substrate H2O2 (standard assay 8 mM); standard assay 20 mM sodium acetate pH 5.5

Km: 6.9 mM
Structure (SMILES): COc1ccccc1O [guaiacol]
